Publication PMC4635352, “Preventive effect of oral goshajinkigan on chronic oxaliplatin-induced hypoesthesia in rats” (Scientific Reports, 2015)
Read-outs that look alike come from different tables or passages of the source.

Tests used:
neuro2A cells = conditions: for oxaliplatin-induced ROS generation, effect of antioxidants: Supplementary Figure S1; for oxaliplatin-induced ROS generation: co-administration with oxaliplatin, 100 μM (first screening), 1–100 μM (second screening), 1 h; for ROS generation in neuro2A cells by metabolites of oxaliplatin: data not shown
SHSY-5Y cells = test system: SHSY-5Y cells; set-up: method as in PMID 21241762, PMID 19379729, PMID 24263411; conditions: cited from earlier work
[1] = pharmacokinetic study of GJG-derived compounds in rat plasma (LC-MS/MS); type: in vivo; conditions: for time for which the high plasma concentration was maintained: after oral administration of GJG; for time at which maximum plasma concentration (Cmax) was reached: after oral administration of GJG 1.0 g/kg; for Cmax / Tmax: rat plasma after oral GJG 1.0 g/kg, mean ± S.D.
Experimental: Rats cannulated in the jugular vein were fasted for more than 16 hours with access to water. At the time of 0.083, 0.25, 0.5, 1, 2, 4 and 8 hours after oral administration of GJG (1.0 g/10 mL/kg), blood samples were collected with a heparin-coated syringe and centrifuged at 3000 rpm for 15 minutes at 4 °C. The plasma samples were pretreated by precipitating plasma protein with an organic solvent or by solid-phase extraction and injected into the LC-MS/MS system for analysis. Components of GJG in plasma were measured by a QTRAP®5500 system (AB SCIEX, Tokyo, Japan) equipped with an Agilent 1260 HPLC system (binary pump, online degasser, auto plate-sampler and column oven; Agilent Technologies, Tokyo, Japan). The lower limits for quantification were 0.001 ng/mL for benzoylaconine, benzoylmesaconine, benzoylhypaconine; 0.002 ng/mL for 14-anisoylaconine; 0.2 ng/mL for loganin and morroniside; 0.5 ng/mL for paeoniflorin; and 5 ng/mL for catalpol. Cmax and time to reach maximum plasma concentration (Tmax) as pharmacokinetic parameters were calculated based on the plasma concentration of each compound by Phoenix WinNonlin (version 6.3; Certara L.P., St. Louis, MO, USA).

time at which maximum plasma concentration (Cmax) was reached [1] [min]	Cmax ([1]; read-out: Cmax) [ng/mL]	Tmax ([1]; read-out: Tmax) [min]	Compound	oxaliplatin-induced ROS generation (neuro2A cells)	Cmax [1] [ng/mL]	Tmax [1] [min]	further results
–	–	–	N[C@@H](CCC(=O)N[C@@H](CS)C(=O)NCC(=O)O)C(=O)O [glutathione]	–	–	–	oxaliplatin-induced ROS generation, effect of antioxidants (neuro2A cells): inhibited
30	43.7 ± 25.7	34.8 ± 12	COC(=O)C1=CO[C@@H](O[C@@H]2O[C@H](CO)[C@@H](O)[C@H](O)[C@H]2O)[C@@H]2[C@@H](C)[C@@H](O)C[C@H]12 [Loganin, loganin]	significantly decreased	–	–	ROS production induced by H2O2 or amyloid β 25–35 peptide (SHSY-5Y cells): attenuate ROS production; time for which the high plasma concentration was maintained [1]: 4 h
–	–	–	COC[C@]12CN(C)C3[C@@H]4[C@H](OC)[C@H]1[C@@]3([C@@H](OC)C[C@H]2O)[C@@H]1C[C@@]2(O)[C@H](OC(=O)c3ccccc3)[C@@H]1[C@]4(O)[C@@H](O)[C@@H]2OC [Benzoylmesaconine, benzoylmesaconine]	–	0.041 ± 0.006	26.4 ± 7.8	–
–	–	–	CCN1C[C@]2(COC)[C@H](O)C[C@H](OC)[C@@]34[C@@H]5C[C@@]6(O)[C@H](OC(=O)c7ccccc7)[C@@H]5[C@@](O)([C@@H]([C@H](OC)[C@H]23)[C@@H]14)[C@@H](O)[C@@H]6OC [Benzoylaconine, benzoylaconine]	–	0.012 ± 0.002	30 ± 0	–
60	282 ± 119	60 ± 33	OC[C@H]1O[C@@H](O[C@@H]2OC=C[C@H]3[C@H](O)[C@@H]4O[C@]4(CO)[C@@H]23)[C@H](O)[C@@H](O)[C@@H]1O [Catalpol, catalpol]	–	–	–	time for which the high plasma concentration was maintained [1]: 4 h
–	–	–	CC(=O)N[C@@H](CS)C(=O)O [N-acetyl cysteine]	–	–	–	oxaliplatin-induced ROS generation, effect of antioxidants (neuro2A cells): inhibited
–	–	–	O=C(O)C(=O)O [oxalate]	–	–	–	ROS generation in neuro2A cells by metabolites of oxaliplatin (neuro2A cells): did not
30	9.1 ± 1.2	34.8 ± 12	C[C@@]12C[C@@]3(O)O[C@@H](O1)[C@]1(COC(=O)c4ccccc4)[C@H]3C[C@@]12O[C@@H]1O[C@H](CO)[C@@H](O)[C@H](O)[C@H]1O [Paeoniflorin, paeoniflorin]	significantly decreased	–	–	ROS production induced by H2O2 or amyloid β 25–35 peptide (SHSY-5Y cells): attenuate ROS production
–	–	–	[Cl][Pt+2][Cl].[NH-]C1CCCCC1[NH-] (centres unmarked) [Pt(dach)Cl2, dichloro (1,2-diaminocyclohexane) platinum]	–	–	–	ROS generation in neuro2A cells by metabolites of oxaliplatin (neuro2A cells): increased ROS generation
–	–	–	COC[C@@]12CC[C@H](OC)[C@]34C([C@H]([C@H](OC)[C@H]13)[C@]1(O)[C@H]3[C@@H](OC(=O)c5ccccc5)[C@](O)(C[C@H]34)[C@@H](OC)[C@@H]1O)N(C)C2 [Benzoylhypaconine, benzoylhypaconine]	–	0.013 ± 0.001	30 ± 0	–
–	–	–	CCN1C[C@]2(COC)[C@H](O)C[C@H](OC)C34C1C([C@H](OC)[C@@H]32)[C@]1(O)[C@@H]2[C@H]4C[C@@](O)([C@@H]2OC(=O)c2ccc(OC)cc2)[C@@H](OC)[C@@H]1O [14-Anisoylaconine, 14-anisoylaconine]	significantly decreased	0.009 ± 0.000	18.6 ± 7.8	–
30	53.7 ± 26.9	40.2 ± 15.6	COC(=O)C1=CO[C@@H](O[C@@H]2O[C@H](CO)[C@@H](O)[C@H](O)[C@H]2O)[C@@H]2[C@H](C)O[C@@H](O)C[C@H]12 [Morroniside, morroniside]	significantly decreased	–	–	ROS production induced by H2O2 or amyloid β 25–35 peptide (SHSY-5Y cells): attenuate ROS production; time for which the high plasma concentration was maintained [1]: 4 h; rank of anti-ROS action among active components (neuro2A cells; among LO, MO, PF and 14-AA): strongest action
